The source of these data is article PMC11254172 (International Journal for Parasitology: Drugs and Drug …, 2024).

Where two headings read alike, the source gives them in different places.

The subject of assay [1] is T. gondii. The settings on record: cited from earlier work.
Assay [2] deals with N. caninum. The note with it: 50 mg/kg/day for 6 days; ref Winzer et al., 2015; cited from earlier work.
Assay [3] concerns T. gondii oocysts. Set-up: method as in Müller et al., 2017b. The note with it: 50 mg/kg/day for 5 days; ref Müller et al., 2017b; cited from earlier work.
For assay [4], the system named is Nc-β-gal tachyzoites. The assay can be described thus: In vitro proliferation assay with N. caninum β-gal tachyzoites in HFF monolayers. The note with it: read at 72 h post-infection. The class given is cell-based, Neospora caninum. Here is the method:
(§1) N. caninum strain NcSpain-7 and the transgenic strain N. caninum Nc1 expressing β-galactosidase (Nc-β-gal) were grown and maintained in HFF ([Aguado-Martínez et al., 2016]). T. gondii ME49 and T. gondii β-gal tachyzoites (RH background, Tg-β-gal) were cultured as previously described ([Winzer et al., 2015]). T. gondii oocysts of the type II isolate T. gondii sheep Spain 1 (TgShSp1) were generated at the Complutense University of Madrid, Spain, and were stored at 4 °C ([Sánchez-Sánchez et al., 2019]).
(§2) The effects of the compound on HFF viability were assessed by resazurin reduction assay, following the protocols of previous studies ([Anghel et al., 2020]).

Assay [5] relates to N. caninum NcSpain-7 tachyzoites. The note with it: in vivo.
Procedure: A total of 57 BALB/c mice were used: 38 females and 19 males, all 8 weeks old. […] For the infection, NcSpain-7 tachyzoites were cultured in HFF at 37 °C/5% CO₂ and transferred to BALB/c fibroblasts to be grown under the same conditions for three days prior to infection. Parasites were then collected and counted, and each mouse was infected by subcutaneous injection with 10⁵ NcSpain-7 tachyzoites suspended in 100 μL PBS ([Arranz-Solís et al., 2015]). Infection took place on day 7 post-mating. Pregnant and non-pregnant mice were separated as described for the toxoplasmosis model and evaluated for clinical signs and mortality rates. Pregnant mice gave birth on days 20–23 post-mating. […]
Brains of adult mice and surviving pups were collected directly after sacrifice and parasitic load was quantified by real-time PCR specific for T. gondii ([Costa et al., 2000]) and N. caninum ([Müller et al., 2002]). […] DNA was extracted from all samples using the Nucleospin Kit (Macherey-Nagel, Oensingen, Switzerland) and QuantiFluor dsDNA System (Promega, Madison, Wi, USA) was used to determine the DNA concentration. […] Quantitative real-time PCR was performed using the Light Cycler® System (Roche, Basel, Switzerland). Parasite load was calculated by interpolation from a standard curve of DNA samples from 1000, 100 and 10 T. gondii or N. caninum tachyzoites included in each run. […]
The test system of assay [6] is Tg-β-gal tachyzoites. The assay can be described thus: In vitro proliferation assay with T. gondii β-gal tachyzoites in HFF monolayers. The class given is cell-based, Toxoplasma gondii. The note with it: read at 72 h post-infection. Here is the method:
as §1, §2

With `CC(C)(C)n1nc(Cc2cccc3ccccc23)c2c(N)ncnc21` [1NM-PP1], the “Morphological effect on T. gondii” value in assay [1] (ref Sugi et al., 2016) is reported as “Multinucleated forms”.

On to `N#CC(c1ccc(Cl)cc1)c1c(Cl)cc(-n2ncc(=O)[nH]c2=O)cc1Cl` (stereo not drawn) [diclazuril], for which the “Morphological effect on T. gondii” value in assay [1] (ref Lindsay et al., 1995) is “formation of multinucleated forms”.

Consider `CCOc1ccc2cc(-c3nn(CC4CCN(C)CC4)c4ncnc(N)c34)ccc2c1` [BKI-1294], for which the Pup survival rate in assay [2] is reported as 80%. Further, in assay [3], the “Pups with detectable T. gondii DNA in their brain (%)” value is recorded as 7% and the “Pups with detectable T. gondii DNA in their brain (number)” value is 4 out of 55.

In the case of `CC(C)(CO)Cn1nc(-c2ccc3cc(OC4CC4)ccc3c2)c(C(N)=O)c1N` [BKI-1708], the IC50 turned out to be 480 nM in assay [4] (Neospora caninum, 72 h, read-out: IC50 Nc-β-gal Pre-infection, compound added concomitantly to infection of HFF); 964 nM in assay [4] (Neospora caninum, read-out: IC50 Nc-β-gal Post-infection, compound added 3 h after infection of HFF); 481 nM in assay [4] (read-out: IC50 Nc-β-gal Pre-infection, compound added concomitantly to infection of HFF); 120 nM in assay [6] (Toxoplasma gondii, 72 h, read-out: IC50 Tg-β-gal Pre-infection, compound added concomitantly to infection of HFF); 327 nM in assay [6] (Toxoplasma gondii, read-out: IC50 Tg-β-gal Post-infection, compound added 3 h after infection of HFF); 122 nM in assay [6] (read-out: IC50 Tg-β-gal Pre-infection, compound added concomitantly to infection of HFF). Further, in assay [5], the “Vertical transmission rate (%)” value is on record as 38%.

What is called IC50 is the concentration that gives 50% inhibition.
